# Assay results from ChEMBL document CHEMBL3991601, “The target landscape of clinical kinase drugs” (Science, 2017).
# The source made the active and inactive calls. For most assays here, no stated cut-off is given here; in the data, actives have a measured Kd and inactives only a lower limit.
# Assays:
# [1] = molecular target: T1, Phosphatidylinositol 5-phosphate 4-kinase type-2 gamma (Homo sapiens, UniProt Q8TBX8)
# T1 sequence (Q8TBX8 whole entry): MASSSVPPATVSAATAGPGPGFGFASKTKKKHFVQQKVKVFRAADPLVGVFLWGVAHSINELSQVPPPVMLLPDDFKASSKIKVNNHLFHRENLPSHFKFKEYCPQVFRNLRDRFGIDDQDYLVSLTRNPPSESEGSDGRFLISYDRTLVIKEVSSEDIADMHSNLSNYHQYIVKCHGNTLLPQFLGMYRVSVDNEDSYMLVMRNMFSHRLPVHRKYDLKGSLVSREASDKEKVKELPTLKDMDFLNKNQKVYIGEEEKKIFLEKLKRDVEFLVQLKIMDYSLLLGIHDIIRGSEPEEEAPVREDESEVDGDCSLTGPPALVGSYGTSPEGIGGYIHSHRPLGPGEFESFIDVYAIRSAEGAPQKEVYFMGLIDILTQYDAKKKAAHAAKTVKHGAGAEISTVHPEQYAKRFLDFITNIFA
# Activin receptor type-1 = molecular target: T2, Activin receptor type-1 (Homo sapiens, UniProt Q04771)
# T2 sequence (Q04771 whole entry): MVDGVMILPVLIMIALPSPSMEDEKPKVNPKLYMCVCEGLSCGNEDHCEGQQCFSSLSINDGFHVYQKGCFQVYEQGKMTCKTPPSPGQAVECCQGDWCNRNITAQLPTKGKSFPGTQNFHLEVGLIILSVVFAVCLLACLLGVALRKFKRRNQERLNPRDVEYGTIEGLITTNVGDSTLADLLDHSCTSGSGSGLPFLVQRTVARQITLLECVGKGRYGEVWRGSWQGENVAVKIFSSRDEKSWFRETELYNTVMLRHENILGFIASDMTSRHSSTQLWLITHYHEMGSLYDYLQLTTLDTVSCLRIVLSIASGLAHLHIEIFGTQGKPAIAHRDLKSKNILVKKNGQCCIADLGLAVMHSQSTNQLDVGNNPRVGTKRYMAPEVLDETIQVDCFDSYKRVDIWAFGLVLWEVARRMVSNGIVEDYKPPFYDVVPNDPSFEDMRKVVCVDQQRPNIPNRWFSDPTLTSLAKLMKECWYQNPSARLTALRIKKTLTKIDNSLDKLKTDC
# [2] = molecular target: T3, Serine/threonine-protein kinase D2 (Homo sapiens, UniProt Q9BZL6)
# T3 sequence (Q9BZL6 whole entry): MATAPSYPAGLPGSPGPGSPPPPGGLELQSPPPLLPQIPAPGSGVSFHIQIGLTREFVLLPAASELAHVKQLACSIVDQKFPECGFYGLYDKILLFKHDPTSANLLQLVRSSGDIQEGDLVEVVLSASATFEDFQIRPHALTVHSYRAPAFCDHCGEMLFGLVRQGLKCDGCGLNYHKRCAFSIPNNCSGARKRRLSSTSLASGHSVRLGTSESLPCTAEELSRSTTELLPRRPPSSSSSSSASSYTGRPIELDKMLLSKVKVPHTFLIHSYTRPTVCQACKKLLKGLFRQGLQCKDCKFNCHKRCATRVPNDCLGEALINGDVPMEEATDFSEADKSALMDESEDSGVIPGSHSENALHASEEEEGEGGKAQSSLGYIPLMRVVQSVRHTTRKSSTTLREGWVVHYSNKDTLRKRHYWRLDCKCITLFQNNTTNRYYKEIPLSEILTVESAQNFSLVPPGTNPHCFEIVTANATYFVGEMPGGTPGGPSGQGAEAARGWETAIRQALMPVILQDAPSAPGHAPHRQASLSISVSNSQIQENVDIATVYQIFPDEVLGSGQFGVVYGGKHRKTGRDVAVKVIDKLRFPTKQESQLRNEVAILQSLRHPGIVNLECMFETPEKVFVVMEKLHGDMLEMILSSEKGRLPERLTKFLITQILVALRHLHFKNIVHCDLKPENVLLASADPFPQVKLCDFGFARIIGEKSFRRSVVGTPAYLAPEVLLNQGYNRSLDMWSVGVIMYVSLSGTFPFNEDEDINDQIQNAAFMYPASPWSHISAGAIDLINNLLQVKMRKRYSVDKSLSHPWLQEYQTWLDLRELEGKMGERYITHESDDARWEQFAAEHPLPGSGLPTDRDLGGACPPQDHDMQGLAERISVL
# [3] = molecular target: Serine/threonine-protein kinase 16 (Homo sapiens, UniProt O75716)
# [4] = molecular target: Cyclin-dependent kinase 1 (Homo sapiens, UniProt P06493)
# [5] = molecular target: Tyrosine-protein kinase FRK (Homo sapiens, UniProt P42685)
# [6] = molecular target: T4, Peroxisomal acyl-coenzyme A oxidase 3 (Homo sapiens, UniProt O15254)
# T4 sequence (O15254 whole entry): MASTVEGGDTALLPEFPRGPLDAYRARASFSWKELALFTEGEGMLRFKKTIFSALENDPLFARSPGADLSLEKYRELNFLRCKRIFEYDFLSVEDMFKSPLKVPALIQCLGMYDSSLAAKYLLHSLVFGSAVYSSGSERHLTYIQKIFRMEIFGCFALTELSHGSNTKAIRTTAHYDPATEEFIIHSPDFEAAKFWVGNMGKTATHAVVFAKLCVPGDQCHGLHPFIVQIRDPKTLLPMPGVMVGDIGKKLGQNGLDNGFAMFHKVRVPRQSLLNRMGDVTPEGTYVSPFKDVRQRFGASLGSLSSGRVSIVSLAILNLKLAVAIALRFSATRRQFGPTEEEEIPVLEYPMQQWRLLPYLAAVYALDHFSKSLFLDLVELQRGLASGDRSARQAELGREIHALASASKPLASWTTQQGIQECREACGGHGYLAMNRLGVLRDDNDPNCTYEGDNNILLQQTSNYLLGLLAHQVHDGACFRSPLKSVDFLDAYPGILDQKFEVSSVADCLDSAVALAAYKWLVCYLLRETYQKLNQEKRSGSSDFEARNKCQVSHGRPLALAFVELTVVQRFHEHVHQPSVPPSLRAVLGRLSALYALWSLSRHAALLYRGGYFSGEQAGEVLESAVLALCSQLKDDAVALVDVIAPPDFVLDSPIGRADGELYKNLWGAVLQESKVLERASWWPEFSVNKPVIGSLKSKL
# Chain of Serine/threonine-protein kinase 16 (O75716 whole entry): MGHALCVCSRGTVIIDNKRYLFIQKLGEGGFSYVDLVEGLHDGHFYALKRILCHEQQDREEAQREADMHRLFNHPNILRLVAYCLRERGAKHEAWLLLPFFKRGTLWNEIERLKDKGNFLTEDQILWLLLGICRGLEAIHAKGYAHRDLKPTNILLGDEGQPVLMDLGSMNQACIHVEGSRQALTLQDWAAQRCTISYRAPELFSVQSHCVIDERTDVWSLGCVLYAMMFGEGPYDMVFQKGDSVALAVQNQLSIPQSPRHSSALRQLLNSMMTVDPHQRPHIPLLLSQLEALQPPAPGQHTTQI
# Chain of Tyrosine-protein kinase FRK (P42685 whole entry): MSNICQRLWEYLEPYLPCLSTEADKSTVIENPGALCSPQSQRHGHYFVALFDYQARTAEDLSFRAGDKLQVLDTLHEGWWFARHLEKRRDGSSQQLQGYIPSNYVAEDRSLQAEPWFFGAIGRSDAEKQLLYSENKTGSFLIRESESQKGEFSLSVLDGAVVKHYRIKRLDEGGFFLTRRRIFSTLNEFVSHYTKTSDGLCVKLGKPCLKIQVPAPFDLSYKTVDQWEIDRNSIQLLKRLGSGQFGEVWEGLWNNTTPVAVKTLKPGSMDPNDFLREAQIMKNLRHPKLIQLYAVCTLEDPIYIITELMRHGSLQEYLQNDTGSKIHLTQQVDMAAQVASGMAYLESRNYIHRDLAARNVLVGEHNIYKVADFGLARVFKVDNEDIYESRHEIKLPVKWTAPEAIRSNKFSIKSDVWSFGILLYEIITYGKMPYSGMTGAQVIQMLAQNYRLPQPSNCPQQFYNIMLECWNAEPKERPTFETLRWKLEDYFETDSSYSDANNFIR
# Chain of Cyclin-dependent kinase 1 (P06493 whole entry): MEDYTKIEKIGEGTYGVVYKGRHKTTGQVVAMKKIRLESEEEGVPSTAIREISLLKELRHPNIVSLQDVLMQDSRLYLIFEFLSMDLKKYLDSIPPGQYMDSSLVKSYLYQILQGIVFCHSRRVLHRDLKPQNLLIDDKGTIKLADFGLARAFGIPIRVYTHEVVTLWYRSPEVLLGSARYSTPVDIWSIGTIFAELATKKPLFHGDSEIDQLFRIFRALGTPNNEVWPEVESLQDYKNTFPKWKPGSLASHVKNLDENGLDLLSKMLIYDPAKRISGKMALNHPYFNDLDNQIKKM
Kd (Activin receptor type-1),Kd [2],Kd [4],Kd [5],Kd [6],SMILES,Kd [1],Kd [3]
> 30 µM (inactive),> 30 µM (inactive),> 30 µM (inactive),> 30 µM (inactive),> 30 µM (inactive),NC(=O)c1ccc(N(C(N)=O)c2c(F)cccc2F)nc1-c1ccc(F)cc1F [VX-702],> 30 µM (inactive),> 30 µM (inactive)
> 30 µM (inactive),> 30 µM (inactive),> 30 µM (inactive),> 30 µM (inactive),> 30 µM (inactive),Cc1cc(Nc2nc(N[C@@H](C)c3ncc(F)cn3)ncc2Cl)n[nH]1 [AZD-1480],> 30 µM (inactive),> 30 µM (inactive)
> 30 µM (inactive),> 30 µM (inactive),> 30 µM (inactive),> 30 µM (inactive),> 30 µM (inactive),COc1cc2ncnc(Nc3ccc(O)cc3)c2cc1OC [WHI-P131],> 30 µM (inactive),> 30 µM (inactive)
> 30 µM (inactive),> 30 µM (inactive),> 30 µM (inactive),> 30 µM (inactive),> 30 µM (inactive),CNC(=O)c1cc(COc2nnc(Nc3ccc(Cl)cc3)c3ccoc23)ccn1 [TELATINIB],> 30 µM (inactive),> 30 µM (inactive)
,,> 30 µM (inactive),,> 30 µM (inactive),COc1cc2c(Oc3ccc4[nH]c(C)cc4c3F)ncnc2cc1OCCCN1CCCC1 [CEDIRANIB],,
,,,,> 30 µM (inactive),COc1cc2c(N3CCN(C(=O)Nc4ccc(OC(C)C)cc4)CC3)ncnc2cc1OCCCN1CCCCC1 [TANDUTINIB],,
,,> 30 µM (inactive),,> 30 µM (inactive),CN(C)C/C=C/C(=O)Nc1cc2c(Nc3ccc(F)c(Cl)c3)ncnc2cc1O[C@H]1CCOC1 [AFATINIB],,
> 30 µM (inactive),2.06 µM (active),,> 30 µM (inactive),> 30 µM (inactive),CCN1CCN(Cc2ccc(Nc3ncc(F)c(-c4cc(F)c5nc(C)n(C(C)C)c5c4)n3)nc2)CC1 [ABEMACICLIB],> 30 µM (inactive),0.495 µM (active)
,,> 30 µM (inactive),,> 30 µM (inactive),Cn1cnc2c(F)c(Nc3ccc(Br)cc3Cl)c(C(=O)NOCCO)cc21 [SELUMETINIB],,
> 30 µM (inactive),> 30 µM (inactive),> 30 µM (inactive),> 30 µM (inactive),> 30 µM (inactive),COc1cc(Nc2ncc(F)c(Nc3ccc4c(n3)N(COP(=O)(O)O)C(=O)C(C)(C)O4)n2)cc(OC)c1OC [FOSTAMATINIB],,
,,> 30 µM (inactive),,> 30 µM (inactive),C[C@@]1(C(=O)Nc2ccc(F)nc2)CCCN1c1nc(Nc2cc(C3CC3)n[nH]2)c2cccn2n1 [BMS-754807],,
,,> 30 µM (inactive),,> 30 µM (inactive),CC1(C)CNc2cc(NC(=O)c3cccnc3NCc3ccncc3)ccc21 [MOTESANIB],,
> 30 µM (inactive),,> 30 µM (inactive),> 30 µM (inactive),> 30 µM (inactive),CC(C)(O)CC(=O)NCCn1ccc2ncnc(Nc3ccc(Oc4cccc(C(F)(F)F)c4)c(Cl)c3)c21 [TAK-285],> 30 µM (inactive),
,> 30 µM (inactive),> 30 µM (inactive),> 30 µM (inactive),> 30 µM (inactive),CCN(CCCOc1ccc2c(Nc3cc(CC(=O)Nc4cccc(F)c4)n[nH]3)ncnc2c1)CCOP(=O)(O)O [BARASERTIB],> 30 µM (inactive),> 30 µM (inactive)
> 30 µM (inactive),> 30 µM (inactive),,> 30 µM (inactive),> 30 µM (inactive),O=C(O)c1ccc2c(c1)nc(Nc1cccc(Cl)c1)c1ccncc12 [SILMITASERTIB],1.11 µM (active),> 30 µM (inactive)

SMILES,Kd (Activin receptor type-1),Kd [2],Kd [4],Kd [5],Kd [6],Kd [1],Kd [3]
Cc1c(NC(=O)OC[C@@H]2COCCN2)cn2ncnc(Nc3ccc4c(cnn4Cc4cccc(F)c4)c3)c12 [AC-480],> 30 µM (inactive),> 30 µM (inactive),> 30 µM (inactive),> 30 µM (inactive),> 30 µM (inactive),> 30 µM (inactive),> 30 µM (inactive)
Cn1cc(-c2[nH]c3cc(NC(=O)[C@H](N)C4CCCCC4)cc4c3c2C=NNC4=O)cn1,> 30 µM (inactive),> 30 µM (inactive),> 30 µM (inactive),> 30 µM (inactive),> 30 µM (inactive),> 30 µM (inactive),> 30 µM (inactive)
CN(c1ncccc1CNc1nc(Nc2ccc3c(c2)CC(=O)N3)ncc1C(F)(F)F)S(C)(=O)=O [PF-00562271],,,1.51 µM (active),,> 30 µM (inactive),> 30 µM (inactive),0.138 µM (active)
C[C@]1(O)C[C@@H](c2nc(-c3ccc4ccc(-c5ccccc5)nc4c3)c3c(N)nccn32)C1 [LINSITINIB],> 30 µM (inactive),,,,> 30 µM (inactive),5.57 µM (active),> 30 µM (inactive)
NC[C@@](O)(c1ccc(Cl)cc1)c1ccc(-c2cn[nH]c2)cc1 [AT-13148],> 30 µM (inactive),> 30 µM (inactive),> 30 µM (inactive),> 30 µM (inactive),> 30 µM (inactive),> 30 µM (inactive),> 30 µM (inactive)
CN1CCN(c2nc(C3=C(c4c[nH]c5ccccc45)C(=O)NC3=O)c3ccccc3n2)CC1 [SOTRASTAURIN],> 30 µM (inactive),> 30 µM (inactive),,> 30 µM (inactive),> 30 µM (inactive),> 30 µM (inactive),> 30 µM (inactive)
CNC(=O)c1ccc(Nc2ncc(C(F)(F)F)c(NCc3nccnc3N(C)S(C)(=O)=O)n2)cc1 [DEFACTINIB],> 30 µM (inactive),> 30 µM (inactive),2.01 µM,> 30 µM (inactive),> 30 µM (inactive),> 30 µM (inactive),
O=S(=O)(c1cccc2cnccc12)N1CCCNCC1 [FASUDIL],> 30 µM (inactive),6.42 µM (active),,> 30 µM (inactive),> 30 µM (inactive),> 30 µM (inactive),> 30 µM (inactive)
